The test system of experiment [1] is ATP3 (DNA, aptamer) ACCTGGGGGAGTATTGCGGAGGAAGGT
The experiment can be described thus: ITC, two-site cooperative fit. As to conditions: Na+ (120 mM NaCl), 10 mM sodium acetate pH 5.5, 20 °C, site 1 of 2. A general note: Isothermal titration calorimetry measures the heat released or taken up as one component is titrated into another.

The subject of experiment [2] is Apt1d (DNA, aptamer) TTCGGGGAGTATTGCGGAGGAA
Kind of experiment: ITC. The settings on record: Na+ (100 mM NaCl), Mg2+ (2 mM MgCl2); 10 mM HEPES pH 7.6, 20 °C; 100 µM DNA.

Experiment [3] deals with ATP3 (DNA, aptamer) ACCTGGGGGAGTATTGCGGAGGAAGGT
Kind of experiment: UV melting, 260 nm. The settings on record: Na+ (120 mM NaCl); 10 mM sodium acetate pH 5.5; 95% ligand-bound; derived from two Tm (45.2 ± 0.5, 44.2 ± 1.5).

Experiment [4] has as its system ATP17 (DNA, aptamer) ACCTGGGCGGGGAGTATTGCGGACGAGGAAGGT
Kind of experiment: ITC, two-site cooperative fit. As to conditions: Na+ (120 mM NaCl); 10 mM sodium acetate pH 5.5, 20 °C; 100 µM DNA; site 1 of 2.

The test system of experiment [5] is ATP10 (DNA, aptamer, inosine at 9 (G9I)) ACCTGGGGGAGTATTGCGGAGGAAGGT
The experiment can be described thus: ITC, one-site fit. The settings on record: Na+ (120 mM NaCl); 10 mM sodium acetate pH 5.5, 20 °C.

Experiment [6] has as its system ATP9 (DNA, aptamer, inosine at 22 (G22I)) ACCTGGGGGAGTATTGCGGAGGAAGGT
Kind of experiment: ITC, one-site fit. As to conditions: Na+ (120 mM NaCl); 10 mM sodium acetate pH 5.5, 20 °C.

Experiment [7] concerns ATP7 (DNA, aptamer) ACCTGGGCGCGGGAGTATTGCGGAGCGAGGAAGGT
Kind of experiment: UV melting, 260 nm. As to conditions: Na+ (120 mM NaCl); 10 mM sodium acetate pH 5.5; 95% ligand-bound; derived from two Tm (55.6 ± 0.5, 55.8 ± 0.6).

Experiment [8] concerns Apt1d-GC2 (DNA, aptamer) TTCGGGGCGTATTGCGCAGGAA
The experiment can be described thus: ITC. As to conditions: Na+ (100 mM NaCl), Mg2+ (2 mM MgCl2); 10 mM HEPES pH 7.6, 20 °C; 100 µM DNA.

Experiment [9] has as its system ATP7 (DNA, aptamer) ACCTGGGCGCGGGAGTATTGCGGAGCGAGGAAGGT
Kind of experiment: ITC, two independent sites fit. As to conditions: Na+ (120 mM NaCl); 10 mM sodium acetate pH 5.5, 20 °C; 100 µM DNA; site 1 of 2.

Experiment [10] has as its system Apt1d-GC1 (DNA, aptamer) TTCGGGGAGTATTGCGCAGGAA
Kind of experiment: ITC. The settings on record: Na+ (100 mM NaCl), Mg2+ (2 mM MgCl2); 10 mM HEPES pH 7.6, 20 °C; 100 µM DNA.

This note sets out measurements from PMC7609719 (2020).

In experiment [1] (70 µM DNA), `Nc1ncnc2c1ncn2[C@@H]1O[C@H](COP(=O)(O)OP(=O)(O)O)[C@@H](O)[C@H]1O` came in with a Kd1 of 101 ± 33 µM.

`Nc1ncnc2c1ncn2[C@@H]1O[C@H](COP(=O)(O)O)[C@@H](O)[C@H]1O` registered a Kd1 in experiment [1] (70 µM DNA) of 86 ± 26 µM.

As to `Nc1ncnc2c1ncn2[C@@H]1O[C@H](CO)[C@@H](O)[C@H]1O`, the binding entry in [2] is listed as “yes”; in [8], “no”; in [10], “no”. Moreover, the “melting temperature change (ΔTm, bound minus free)” value in experiment [3] was -1.0 °C; in [7] it was 0.2 °C. The Kd1 in experiment [4] was 44 ± 8 µM; in experiment [1] (average of fits at 10-100 µM aptamer), 25 ± 15 µM; in [9], 1.3 ± 0.5 µM. Moreover, the values for the affinity in experiment [5] and in experiment [6] were 188 ± 37 µM and 212 ± 69 µM, respectively.

In experiment [1] (70 µM DNA), `Nc1ncnc2c1ncn2[C@@H]1O[C@H](COP(=O)(O)OP(=O)(O)OP(=O)(O)O)[C@@H](O)[C@H]1O` displayed a Kd1 of 133 ± 55 µM.
